Measured values: US12528767B2, “HDAC6 inhibitors and uses thereof” (Eikonizo Therapeutics, Inc., priority 2019, dated 2026)
Where two headings read alike, the source gives them in different places.

Columns and labels:
Full length Human HDAC6 = molecular target: T1, Full length Human HDAC6 (Homo sapiens, UniProt Q9UBN7); details: for Selectivity (6 v 8) (fold): ratio of HDAC8 IC50/HDAC6 IC50
T1 sequence (Q9UBN7 1-1215): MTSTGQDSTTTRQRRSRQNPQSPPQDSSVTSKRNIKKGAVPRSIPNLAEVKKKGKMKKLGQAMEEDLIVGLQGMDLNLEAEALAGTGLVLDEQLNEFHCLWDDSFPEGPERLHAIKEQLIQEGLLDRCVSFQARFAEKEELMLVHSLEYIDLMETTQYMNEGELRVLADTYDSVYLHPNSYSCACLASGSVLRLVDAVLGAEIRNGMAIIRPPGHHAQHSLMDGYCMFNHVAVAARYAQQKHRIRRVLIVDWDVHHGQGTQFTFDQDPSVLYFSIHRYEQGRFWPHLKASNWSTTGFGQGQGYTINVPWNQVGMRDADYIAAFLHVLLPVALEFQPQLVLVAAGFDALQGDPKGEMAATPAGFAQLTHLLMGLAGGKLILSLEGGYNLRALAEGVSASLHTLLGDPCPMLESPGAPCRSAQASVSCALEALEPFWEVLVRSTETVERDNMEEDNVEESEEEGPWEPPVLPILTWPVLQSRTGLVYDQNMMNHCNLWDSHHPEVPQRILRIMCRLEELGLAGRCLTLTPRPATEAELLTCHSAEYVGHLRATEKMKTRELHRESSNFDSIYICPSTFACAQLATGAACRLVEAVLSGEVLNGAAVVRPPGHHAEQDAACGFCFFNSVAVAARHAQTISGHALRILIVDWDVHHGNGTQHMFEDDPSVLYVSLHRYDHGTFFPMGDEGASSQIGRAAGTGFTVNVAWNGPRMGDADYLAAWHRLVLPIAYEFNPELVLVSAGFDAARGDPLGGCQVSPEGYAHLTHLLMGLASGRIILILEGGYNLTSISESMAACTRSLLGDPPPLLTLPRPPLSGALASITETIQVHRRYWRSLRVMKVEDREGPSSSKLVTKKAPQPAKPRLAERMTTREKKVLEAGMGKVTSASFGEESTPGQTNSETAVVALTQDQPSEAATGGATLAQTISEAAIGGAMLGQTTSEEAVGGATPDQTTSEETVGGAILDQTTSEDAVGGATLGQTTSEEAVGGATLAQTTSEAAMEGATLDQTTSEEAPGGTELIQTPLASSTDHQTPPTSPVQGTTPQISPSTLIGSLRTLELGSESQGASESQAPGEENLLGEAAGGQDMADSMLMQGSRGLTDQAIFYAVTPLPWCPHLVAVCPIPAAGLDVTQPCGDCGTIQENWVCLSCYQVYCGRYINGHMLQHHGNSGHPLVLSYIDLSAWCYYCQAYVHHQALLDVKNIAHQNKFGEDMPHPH

Full length Human HDAC8 = molecular target: T2, Full length Human HDAC8 (Homo sapiens, UniProt Q9BY41)
T2 sequence (Q9BY41 1-377): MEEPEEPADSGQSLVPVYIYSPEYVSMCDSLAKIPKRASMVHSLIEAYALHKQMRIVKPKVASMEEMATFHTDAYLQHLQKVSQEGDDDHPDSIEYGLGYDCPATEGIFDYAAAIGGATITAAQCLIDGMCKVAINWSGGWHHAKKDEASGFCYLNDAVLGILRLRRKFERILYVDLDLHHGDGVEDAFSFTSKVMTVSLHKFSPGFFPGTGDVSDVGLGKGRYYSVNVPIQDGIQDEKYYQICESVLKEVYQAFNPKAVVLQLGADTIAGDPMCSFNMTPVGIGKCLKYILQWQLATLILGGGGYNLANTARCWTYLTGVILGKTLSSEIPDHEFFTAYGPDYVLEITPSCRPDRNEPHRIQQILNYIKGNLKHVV

SMILES | IC50 (Full length Human HDAC6) | IC50 (Full length Human HDAC8) | Selectivity (6 v 8) (fold) (Full length Human HDAC6; Table 1, number) | Selectivity (6 v 8) (fold) (Full length Human HDAC6; Table 1, range class)
O=C(NO)c1cc(F)c2c(c1)CCN(C1CCC1)C2 [compound 4] | 0.001 to 0.1 µM | 10 to 100 µM |  | 
O=C(NO)c1cc(F)c2c(c1)CCN(CC1CCC1)C2 [compound 3] | 0.001 to 0.1 µM | 1 to 10 µM |  | 
O=C(NO)c1cc(F)c2c(c1)CCN(CC13C4C5C6C4C1C6C53)C2 (centres unmarked) [compound 25] | 0.001 to 0.1 µM | 10 to 100 µM |  | 
O=C(NO)c1ccc2c(c1)Cn1cccc1-2 [compound 166, N-hydroxy-5H-pyrrolo[2,1-a]isoindole-7-carboxamide] | 0.1 to 1 µM | 1 to 10 µM | 14 fold | III (III: >10-100)
O=C1CC2CCCC(C1)N2Cc1ccc(C(=O)NO)cc1F [compound 62] | 0.001 to 0.1 µM | 0.1 to 1 µM | 30.6 fold | III (III: >10-100)
O=C(NO)c1ccc(CN2CC3(COC3)C2)c(F)c1 [compound 72] | 0.001 to 0.1 µM | 0.1 to 1 µM | 44.8 fold | III (III: >10-100)
CN1Cc2cc(C(=O)NO)ccc2-c2cccn21 [compound 162, N-hydroxy-5-methyl-5,6-dihydropyrrolo[2,1-a]phthalazine-8-carboxamide] | 0.1 to 1 µM | 1 to 10 µM | 2.8 fold | II (II: >1-10)
O=C(NO)c1cc(F)c2c(c1)C[C@H]1CCC3(CCCCC3)CN1C2 (single isomer, unassigned) [compound 138] | 0.1 to 1 µM | 10 to 100 µM | 45 fold | III (III: >10-100)
CN1CC2CCC1CN2Cc1ccc(C(=O)NO)cc1F (centres unmarked) [compound 57] | 0.001 to 0.1 µM | 0.1 to 1 µM | 10.7 fold | III (III: >10-100)
CC1(C)C[C@H]2Cc3cc(C(=O)NO)cc(F)c3CN2C1 (single isomer, unassigned) [compound 125] | 0.001 to 0.1 µM | 1 to 10 µM | 82 fold | III (III: >10-100)
Cc1ccn2c1-c1c(F)cc(C(=O)NO)cc1CC2 [compound 155, 10-fluoro-N-hydroxy-1-methyl-5,6-dihydropyrrolo[2,1-a] isoquinoline-8-carboxamide] | 0.001 to 0.1 µM | 0.1 to 1 µM | 6.1 fold | II (II: >1-10)
O=C(NO)c1ccc2c(c1F)CCN(CC13CC4CC(CC(C4)C1)C3)C2 [compound 21] | 0.1 to 1 µM | 1 to 10 µM | 50.2 fold | III (III: >10-100)
O=C(NO)c1cc(F)c2c(c1)CN(Cc1ccccc1)CC2 [compound 114, 2-benzyl-5-fluoro-N-hydroxy-1,2,3,4-tetrahydroisoquinoline-7-carboxamide] | 0.001 to 0.1 µM | 0.1 to 1 µM | 10.3 fold | III (III: >10-100)
O=C(NO)c1ccc(CN2CCCOCC2)c(F)c1 [compound 47] | 0.001 to 0.1 µM | 0.1 to 1 µM | 22.3 fold | III (III: >10-100)
O=C(NO)c1ccc(CN2CCC3(CCCC3)C2)c(F)c1 [compound 73] | 0.001 to 0.1 µM | 1 to 10 µM | 35.8 fold | III (III: >10-100)
O=C(NO)c1cc(F)c2c(c1)CCN([C@@H]1CCC13CCCCC3)C2 (single isomer, unassigned) [compound 8] | 0.1 to 1 µM | 10 to 100 µM | 198.5 fold | IV (IV: >100-1000)
O=C(NO)c1ccc2c(c1)CN1CCC[C@@H]21 (single isomer, unassigned) [compound 165] | 0.1 to 1 µM | 1 to 10 µM | 15 fold | III (III: >10-100)
O=C(NO)c1cc(F)c(CN2C3CCC2COC3)cc1F [compound 50] | 0.001 to 0.1 µM | 1 to 10 µM | 45.5 fold | III (III: >10-100)
O=C(NO)c1ccc(CN2CC3(CCOC3)C2)c(F)c1 [compound 68] | 0.001 to 0.1 µM | 1 to 10 µM | 27.9 fold | III (III: >10-100)
CN1CC2CCC(C1)N2Cc1ccc(C(=O)NO)cc1F [compound 56] | 0.001 to 0.1 µM | 0.1 to 1 µM | 19 fold | III (III: >10-100)
CN1CC2(CCCCC2)CC[C@H]1Cc1cc(F)cc(C(=O)NO)c1 (single isomer, unassigned) [compound 171] | 0.001 to 0.1 µM | 1 to 10 µM | 30.2 fold | III (III: >10-100)
O=C(NO)c1cc(F)c2c(c1)CCN(CC13CC4CC(CC(C4)O1)C3)C2 [compound 14] | 0.001 to 0.1 µM | 10 to 100 µM |  | 

Next, values leading:

IC50 (Full length Human HDAC6) | IC50 (Full length Human HDAC8) | Selectivity (6 v 8) (fold) (Full length Human HDAC6; Table 1, number) | Selectivity (6 v 8) (fold) (Full length Human HDAC6; Table 1, range class) | SMILES
0.001 to 0.1 µM | 1 to 10 µM |  |  | O=C(NO)c1cc(F)c2c(c1)CCN(CC(F)(F)F)C2 [compound 7]
0.001 to 0.1 µM | 1 to 10 µM | 33.4 fold | III (III: >10-100) | O=C(NO)c1ccc(CN2CC3(CCOCC3)C2)c(F)c1 [compound 71]
0.001 to 0.1 µM | 1 to 10 µM | 20.6 fold | III (III: >10-100) | O=C(NO)c1ccc(CN2CC3(CCCC3)C2)c(F)c1 [compound 69]
0.001 to 0.1 µM | 10 to 100 µM | 209.2 fold | IV (IV: >100-1000) | O=C(NO)c1cc(F)c2c(c1)CCN(C1CCC13CCCCC3)C2 (centres unmarked) [compound 15]
0.001 to 0.1 µM | 0.1 to 1 µM | 27.6 fold | III (III: >10-100) | O=C(NO)c1ccc(CN2CCOCC2)c(F)c1 [compound 51]
0.001 to 0.1 µM | 1 to 10 µM |  |  | O=C(NO)c1cc(F)c2c(c1)CCN(CC1CC1)C2 [compound 2]
0.1 to 1 µM | 10 to 100 µM | 168.4 fold | IV (IV: >100-1000) | O=C(NO)c1cc(F)c2c(c1)CN(CC13CC4CC(CC(C4)O1)C3)C2 [compound 13]
0.001 to 0.1 µM | 10 to 100 µM | 145.7 fold | IV (IV: >100-1000) | CC1(CN2CCc3cc(C(=O)NO)cc(F)c3C2)CC1 [compound 1, 8-fluoro-N-hydroxy-2-((1-methylcyclopropyl)methyl)-1,2,3,4-tetrahydroisoquinoline-6-carboxamide]
0.001 to 0.1 µM | 1 to 10 µM | 16 fold | III (III: >10-100) | O=C(NO)c1ccc(CN2CC3(CCCCC3)C2)c(F)c1 [compound 70]
0.001 to 0.1 µM | 1 to 10 µM |  |  | CN1Cc2cc(C(=O)NO)ccc2CN1Cc1ccccc1 [compound 118, 2-benzyl-N-hydroxy-3-methyl-1,2,3,4-tetrahydrophthalazine-6-carboxamide]
0.001 to 0.1 µM | 1 to 10 µM |  |  | Cc1cccc(C)c1CN1CCc2cc(C(=O)NO)cc(F)c2C1 [compound 28]
